Series [1] deals with P388 murine leukemia cells. Description: Malignant cell cytotoxicity, one-hour exposure (clonogenic survival in soft agar). It is filed as cell-based. As to conditions: Mus musculus, 1 hr exposure, read-out: IC50 P388 1 hr. exp. As for the experimental part: (§1) Examples of compound I having Topo II activity were tested for malignant cell cytotoxicity. In vitro cytotoxicity was assayed by determining cell survival following exposure of P388 murine leukemia cells to a range of test compound concentrations. Cytotoxicity was quantitated following either a one-hour exposure or continuous exposure of P388 cells to test compound.
(§2) Cytotoxicity following a one-hour exposure of cells to drug was assayed by quantitating clonogenic cell survival according to a published procedure [Freshney, R. L. (1987) Culture of Animal Cells. A Manual of Basic Technique. Wiley-Liss Inc., New York, N.Y., pp. 140-144]. Briefly, following drug exposure cells were plated in soft agar and incubated (37°, 5% CO2) for 7-10 days during which time viable cells form visible colonies. Cytotoxicity following continuous exposure of cells to test compound was assayed by quantitating total P388 cells on a Coultier Counter following a 48-hour co-incubation of test compound with cells. P388 cells were maintained in log phase throughout the duration of cytotoxicity assays.
(§3) The percentage of cells surviving relative to an untreated control was graphed as a function of increasing drug concentration.

Series [2] relates to P388 murine leukemia cells. Description: Malignant cell cytotoxicity, continuous 48-hour exposure (Coulter Counter). The note with it: Mus musculus, read-out: IC50 P388 cont. exp. It is filed as cell-based. As to the method: as §1, §2, §3
The nature of series [3]: In vivo antitumor assay, Panc03(sc). Details: species or system mouse. As to conditions: mouse, in vivo. An excerpt: (§4) Mice: Inbred: C3H/He and NCR-nu; and Hybrids: B6D2Fl (C57BL/6 females X DBA/2 males, CD2Fl (Balb/c females X DBS/2 males) and B6x C3fl (C57BL/6 x C3H) were bred at Wayne State University from strained obtained from the Frederick Cancer Research Facility, Frederick, Md. or purchased from commercial suppliers.
(§5) Tumors: Murine Tumor: P388 and an adriamycin-resistant (ADR) subline P388/ADR leukemia and the following transplantable solid tumors of mice were used for in Vivo testing: B16 melanoma (B16), pancreatic ductal adenocarcinoma No. 03 (Panc 03), colon adenocarcinoma No. 38 (colo 38), mammary ductal adenocarcinoma No. 16/C (Mam16) and an adriamycin-resistantsubline Mam16C/ADR. Human tumor: A single human tumor, mammary carcinoma MX-1 (MX1) was used for in vivo testing. All tumors are in the Developmental Therapeutics Program frozen tumor respository, maintained by the Biological Testing Branch, Frederick Md. Each has a detailed description, code identification number, and list of references at the National Tumor Repository. Murine tumors were maintained in the mouse strain of origin and were transplanted in the appropriate F1 hydrid (or the strain of origin) for therapy trials. Human mammary carcinoma MX-1 MX1) was maintained as a subcutaneous implant in either athymic Swiss (Cr: NIH(S)-nu) or athymic random bred (NCR-nu) mice and transplanted in NCR-nu for therapy trials.
(§6) Chemotherapy: For pancreatic ductal adenocarcinoma No. 3, colon adenocarcinoma No. 38 (colo38), lung carcinoma No. 12 (LC12) and both adriamycin-sensitive (RP) and -resistant ADR) mammary ductal adenocarcinoma No. 16 (Mam16) tumors, the following methods were used to help ensure a more uniform tumor burden per mouse (thus reducing the requirement for greater numbers of mice per group), bilateral tumor implants were used. The animals necessary to begin an experiment were pooled, implanted bilaterally s.c. on day zero with 30-60-mg tumor fragments using a 12-gauge trocar, and again pooled before randomization to the various treatment and control groups. Chemotherapy was started within three days after tumor implantation while the number of cells per mouse was relatively small (1×10^7 […]).
(§7) Quantitative end points used assess antitumor activity included % Increased Life Span (% ILS), Tumor Cell Kill (Log10 kill), and Tumor Growth Inhibition (T/C). Long Term Survivors (45 or 60 day) were excluded from calculations of % ILS and Tumor Cell Kill.
(§8) The log10 cell kill was calculated from the following formula: [formula] where T-C is the tumor difference in the median day of death between the treated (T) and the control (C) groups and Td is the tumor doubling time (in days), the latter estimated from the best fit straight line from a log-linear growth plot of the control-group tumors in exponential growth. The conversion of the T-C values to log10 cell kill is possible because the Td for tumors regrowing post-treatment approximated the Td values of the tumors in untreated control mice.
(§9) Tumors were measured with a caliper once or twice weekly (as needed) until either tumors exceeded 1600 mg or cure was assured. Tumor weights were estimated from two-dimensional measurements: Tumor Weight (mg)=(a×b^2) / 2, where a and b are the tumor length and width (nun) respectively. Measurements were carried out simultaneously in both treatment and control groups. When the control group tumors reached approximately 750-1500 mg in size (median of group), the median tumor weight of each group was determined (including zeros). The T/C value in percent is an indiation of antitumor effectiveness. The % T/C was calculated from the following formula for solid murine tumor models: [formula] where T and C are median tumor weights of the treatment and control groups, respectively. A T/C equal to or less than 42% is considered significant antitumor activity. […]

In series [4] the test system is pancreatic ductal adenocarcinoma No. 03 (Panc 03). Description: In vivo antitumor assay, Panc03(sc). Details: species or system mouse.
Text: as §4, §5, §6, §7, §8, §9

Series [5] relates to colon adenocarcinoma No. 38 (colo 38). Description: In vivo antitumor assay, Colo38(sc). The arrangement: species or system mouse. As to conditions: drug route iv, Ex 26 qd 3-5 bid 6-11, Ex 30 and 33 qd 3-11.
Text: as §4, §5, §6, §7
(§10) Tumors were measured with a caliper once or twice weekly (as needed) until either tumors exceeded 1600 mg or cure was assured. Tumor weights were estimated from two-dimensional measurements: Tumor Weight (mg)=(a×b^2) / 2, where a and b are the tumor length and width (nun) respectively. Measurements were carried out simultaneously in both treatment and control groups. When the control group tumors reached approximately 750-1500 mg in size (median of group), the median tumor weight of each group was determined (including zeros). The T/C value in percent is an indiation of antitumor effectiveness. The % T/C was calculated from the following formula for solid murine tumor models: [formula] where T and C are median tumor weights of the treatment and control groups, respectively. A T/C equal to or less than 42% is considered significant antitumor activity. A T/C value <10% is indicative of a high degree of antitumor activity and is the level used by National Cancer Institute to justify further development if other requirements are met (termed DN-2 level activity). By convention the T/C value for the mammary carcinoma MX-1 models is calculated by the parameter of change in tumor weight. The % T/C was calculated from the following formula for MX-1 models [formula] where ΔT and ΔC are the change in mean tumor weight of the test and control groups, respectively, and T (initial) is the initial mean tumor weight of the test group. […] A reproducible % T/C ≤10 is considered significant activity.

Series [6] in a line: In vivo antitumor assay, Colo38(sc). Details: species or system mouse. As to conditions: mouse, in vivo, drug route iv, Ex 26 qd 3-5 bid 6-11, Ex 30 and 33 qd 3-11.
Text: as §4, §5, §6, §7, §10

Setting [7] is: drug route iv, Ex 26 qd 4-11, Ex 30 qd 3-11, Ex 33 qd 3-4,7,10, read-out: MTD.
The mark [8] stands for this setting: drug route iv, Ex 26 qd 4-11, Ex 30 qd 3-11, Ex 33 qd 3-4,7,10.

These results are taken from US5330992A, “1-cyclopropyl-4-pyridyl-quinolinones” (priority 1992, dated 1994).

For orientation: IC50 means the point on the concentration scale where inhibition reaches its midpoint.

For the molecule `Cc1cc(-c2c(F)cc3c(=O)c(Cc4c(O)cccc4O)cn(C4CC4)c3c2F)cc(C)n1` [Example 26, 1-Cyclopropyl-6,8-difluoro-7-[2,6-dimethyl-4-pyridinyl]-3-[2,6-dihydroxyphenylmethyl]-1,4-dihydroquinoline-4-one], the IC50 is 250 nM in series [1] and 55 nM in series [2]. Moreover, the MTD in series [3] (setting [7]) is 12 mg/kg; in series [3] (drug route sc, Ex 26 qd 3,5-7 bid 4, read-out: MTD) it was 840 mg/kg; in series [6], 30 mg/kg. The T/C % amounted to 0% in series [4] (setting [8]); 19% in series [4] (drug route sc, Ex 3 qd 3-12, Ex 26 qd 3,5-7 bid 4); 46% in series [5]. Moreover, the “LOG KILL” value in series [4] (drug route iv, qd 4-11, log10 cell kill) is reported as 1.7.
Consider `Cc1cc(-c2c(F)cc3c(=O)c(Cc4ccccc4O)cn(C4CC4)c3c2F)cc(C)n1` [Example 30], for which the 50% inhibitory concentration (IC50) in series [1] worked out at 670 nM; in series [2], 290 nM. Also, the MTD turned out to be 235 mg/kg in series [3] (setting [7]) and 148 mg/kg in series [6]. Besides, the T/C % was found to be 5% in series [4] (setting [8]) and 42% in series [5].
Turning to `Cc1cc(-c2c(F)cc3c(=O)c(Cc4ccc(O)cc4O)cn(C4CC4)c3c2F)cc(C)n1` [Example 33], the IC50 stood at 210 nM in series [1] and 61 nM in series [2]. In addition, the figures for the MTD in series [3] (setting [7]) and in series [6] were 19 mg/kg and 33 mg/kg, respectively. Further, the T/C % in series [4] (setting [8]) is 73%; in series [5] it was more than 100%.
